This note sets out measurements from patent US6538035B2, “Use of tolterodine to treat asthma” (Pharmacia & Upjohn Company, priority 2000, dated 2003).

The test system of one assay is asthma. Kind of assay: treatment of a patient with asthma by inhalation, morning peak flow. The format is in vivo, human. The conditions noted are these: person. As for the experimental part: A person with a history of asthma with a morning peak flow of less than 2 l/sec is treated with 2-(diisopropylamino)ethyl-1-phenylcyclopentanecarboxylate powder 0.1 mg every 8 hr continuously. Treatment improves the peak flow to 4-5 l/sec.
A person with a history of severe asthma with a morning peak flow of 5 l/sec is treated with tolterodine powder 6 mg once a day continuously. After a week of treatment the peak flow improves to 9 l/sec.
A person with a history of severe asthma with a morning peak flow of less than 3 l/sec is treated with tolterodine aerosol 2 mg three times daily continuously. After a week of treatment the peak flow improves to 6 l/sec.

In another assay the test system is chronic COPD. Kind of assay: treatment of a patient with chronic COPD by inhalation. The format is in vivo, human. Particulars: person. The procedure: A person with a history of chronic COPD with FEV1 of 1.5 liters is treated with tolterodine aerosol 1 mg every 12 hr continuously for dyspnea. After two weeks of therapy dyspnea tolerance is improved.
A person with a history of chronic COPD with FEV1/FVC of 60% liters is treated with hydroxytolterodine aerosol 2 mg every 8 hr continuously for dyspnea. After a week of treatment the FEV1/FVC ratio improves to about 65%.

Molecule `CC(C)N(CCOC(=O)C1(c2ccccc2)CCCC1)C(C)C` [2-(diisopropylamino)ethyl-1-phenylcyclopentanecarboxylate] gave a peak flow in the assay on asthma (asthma, baseline morning peak flow less than 2 l/sec, powder 0.1 mg every 8 hr continuously) of 4 to 5 L/s.
As to `CC(C)N(CC[C@H](c1ccccc1)c1cc(CO)ccc1O)C(C)C` [hydroxytolterodine, 2-[(1R)-3-(diisopropylamino)-1-phenylpropyl]-4-(hydroxymethyl)phenol], in the assay on chronic COPD (baseline FEV1/FVC of 60%, aerosol 2 mg every 8 hr continuously, after a week of treatment), the FEV1/FVC ratio entry is “about 65%”.
Regarding `Cc1ccc(O)c([C@H](CCN(C(C)C)C(C)C)c2ccccc2)c1` [tolterodine, 2-[(1R)-3-(diisopropylamino)-1-phenylpropyl]-4-methylphenol], the peak flow in the assay on asthma (severe asthma, baseline morning peak flow 5 l/sec, powder 6 mg once a day continuously, after a week) is 9 L/s; in the assay on asthma (severe asthma, baseline morning peak flow less than 3 l/sec, aerosol 2 mg three times daily continuously, after a week), 6 L/s. Besides, in the assay on chronic COPD (FEV1 of 1.5 liters, aerosol 1 mg every 12 hr continuously, after two weeks of therapy), the dyspnea tolerance entry is given as “improved”.
